According to article PMC6225212, “Synthesis and Pharmacological Evaluation of Novel Silodosin-Based Arylsulfonamide Derivatives as α1A/α1D-Adrenergic Receptor Antagonist with Potential Uroselective Profile” (Molecules : A Journal of Synthetic Chemistry and Natural …, 2018):

Columns and labels:
human 5-HT1A = molecular target: T1, human 5-HT1A (Homo sapiens, UniProt P08908); assay: Radioligand binding [3H]-8-OH-DPAT, membranes from CHO-K1 cells; settings: ± SEM, two independent experiments
T1 construct: expressed in transfected cells; host or cells: CHO-K1
T1 sequence (P08908 1-422): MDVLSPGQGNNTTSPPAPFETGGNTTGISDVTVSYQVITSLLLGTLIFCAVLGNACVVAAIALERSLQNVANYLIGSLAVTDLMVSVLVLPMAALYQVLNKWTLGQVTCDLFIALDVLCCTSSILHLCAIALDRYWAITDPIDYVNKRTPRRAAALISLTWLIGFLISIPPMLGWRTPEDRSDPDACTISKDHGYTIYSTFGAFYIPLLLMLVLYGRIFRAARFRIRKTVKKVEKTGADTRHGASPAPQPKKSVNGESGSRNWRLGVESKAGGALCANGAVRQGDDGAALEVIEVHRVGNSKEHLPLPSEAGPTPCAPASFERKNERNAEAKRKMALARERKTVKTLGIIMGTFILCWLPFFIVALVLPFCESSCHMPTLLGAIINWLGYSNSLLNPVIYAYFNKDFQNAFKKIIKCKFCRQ
Description: (§1) Experiments were performed using membranes from CHO-K1 cells stably transfected with the human 5-HT1A and 5-HT7Rs according to the methods previously described.
(§2) Binding experiments were conducted in 96-well microplates in a total volume of 250 μL of appropriate buffers. The composition of the assay buffers was as follows: 50 mM Tris-HCl, 0.1 mM EDTA, 10 mM MgCl2. The reaction mix included 50 μL solution of test compound, 50 μL of radioligand, and 150 μL of diluted membranes. All assays were incubated for 1 h (5-HT1ARs) or 2 h (5-HT7Rs) at 37 °C. Radioactivity was counted in MicroBeta2 scintillation counter (PerkinElmer, Waltham, MA, USA). Nonspecific binding is defined with 10 µM of 5-HT and 10 µM of methiothepine in 5-HT1AR and 5-HT7R binding experiments, respectively. Each compound was tested in screening assay at two final concentrations of 10 µM and 1 µM.

hERG potassium channel = molecular target: T2, hERG potassium channel (Homo sapiens, UniProt Q12809); assay: Off-target panel at Eurofins Cerep, hERG; assay type: binding; settings: read-out: inhibition at hERG channels
T2 construct: Eurofins (Celle-Lévescault, France)
Description: (§3) Finally, the percentage of inhibition for selected compounds 9 and 10 for off-target histaminic H1R, muscarinic M1R, adrenergic β1-AR and potassium ion channel hERG were assessed at Eurofins (Celle-Lévescault, France) according to the procedure online at www.eurofins.com.

[1] = In vitro metabolic stability in rat-liver microsomes (RLM); assay type: in vitro ADME; settings: for Major Metabolic Pathway: RLM; for microsomal CLint at 10 μM / half-life at 10 μM: male, rat, rat liver microsomes, pH 7.4, RLM 0.2 mg/mL, compound 10 μM, 37 °C; for half-life at 10 μM: read-out: t½
Description: In vitro biotransformation assays of selected compounds 9 and 10 were performed using rat-liver microsomes (RLM), potassium-phosphate buffer, NADPH-regenerating system (NADP, glucose-6-phosphate, glucose-6-phosphate dehydrogenase), and levallorphan as internal standard, according to the previously published procedure. Compound I and the drug tamsulosin were used as reference standard. UPLC/MS analysis (Waters Corporation, Milford, MA, USA) was performed to determine the quantity of the starting material left in solution. The in vitro half-time (t1/2) for test compounds was determined from the slope of the linear regression of ln % parent compound remaining versus incubation time. The calculated t1/2 was incorporated into the following equation to obtain intrinsic clearance: (Clint) = (volume of incubation [µL]/protein in the incubation [mg]) × 0.693/t1/2.
Metabolic stability of tested compound was analyzed using incubation systems, composed of: tested compounds (10 μM), RLMs (microsomes from rat male liver, pooled; 0.2 mg/mL; Sigma Aldrich), NADPH-regenerating system (NADP+, glucose-6-phosphate and glucose-6-phosphate dehydrogenase in 100mM potassium buffer, pH 7.4; all from Sigma Aldrich), and potassium buffer, pH 7.4. […] Firstly, all samples contained incubation mixture (without NADPH-regenerating system) were preincubated in a thermoblock at 37 °C for 10 min. Then reaction was initiated by the addition of NADPH-regenerating system. In control samples NADPH-regenerating system was replaced with potassium buffer. Probes were incubated in thermoblock for 15 and 30 min at 37 °C. After addition of internal standard (levallorphan, 10 μM), the biotransformation process was stopped by addition of perchloric acid (69–72%, by volume). Next, samples were centrifuged (Centrifuge 5427 R, Eppendorf, Hamburg, Germany) and supernatants were analyzed using UPLC/MS (Waters Corporation). All experiments were run in duplicates. Half-life time was evaluated using a nonlinear regression model using Graph Pad Prism software (Graph Pad Software, La Jolla, San Diego, CA, USA) and intrinsic clearance was calculated from the equation Clint = (volume of incubation [μL]/protein in the incubation [mg]) ×∙0.693/t1/2 [33].

human 5-HT7Rs = molecular target: T3, human 5-HT7Rs (Homo sapiens, UniProt P34969); assay: Radioligand binding screening [3H]-LSD, membranes from CHO-K1 cells; settings: for inhibition at 1 µM: 10^−6 M, read-out: 5-HT7 %inh @ 10^−6 M; for inhibition at 0.1 µM: 10^−7 M, read-out: 5-HT7 %inh @ 10^−7 M
T3 construct: expressed in transfected cells; host or cells: CHO-K1
Description: as §1
as §2, with “Each compound was tested in screening assay at two final concentrations of 10 µM and 1 µM.” left out

α1A-ARs = molecular target: T4, α1A-ARs (Homo sapiens, UniProt P35348); assay: Intrinsic activity at α1A-ARs, β-lactamase reporter gene, FRET substrate; assay type: cell-based; parameters: key to α1A Profile: ANT—antagonist; AGO—agonist; settings: for IC50: antagonist mode, three independent experiments; for α1A Profile: functional profile
T4 sequence (P35348 1-466): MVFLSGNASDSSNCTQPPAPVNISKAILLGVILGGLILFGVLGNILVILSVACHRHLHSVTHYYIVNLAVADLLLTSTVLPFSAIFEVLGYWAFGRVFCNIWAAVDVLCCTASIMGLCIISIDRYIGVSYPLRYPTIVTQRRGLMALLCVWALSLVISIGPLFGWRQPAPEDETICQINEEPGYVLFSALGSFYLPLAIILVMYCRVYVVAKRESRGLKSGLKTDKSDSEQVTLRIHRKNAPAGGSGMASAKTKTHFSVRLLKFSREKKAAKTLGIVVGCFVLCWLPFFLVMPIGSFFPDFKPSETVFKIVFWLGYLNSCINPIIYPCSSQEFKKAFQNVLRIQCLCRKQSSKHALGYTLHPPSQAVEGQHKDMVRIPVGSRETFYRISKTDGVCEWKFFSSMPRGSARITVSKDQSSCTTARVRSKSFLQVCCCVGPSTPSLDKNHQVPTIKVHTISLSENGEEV
Description: The intrinsic activity at α1A-ARs of the selected compounds was assessed by fluorescence detection (Invitrogen, Thermo Fisher Scientific, Carlsbad, CA, USA) of β-lactamase reporter genes using a FRET-enabled substrate. […] Intrinsic activity assay was performed according to the manufacturer of the assay kit (Invitrogen, Thermo Fisher Scientific corporation, Carlsbad, CA, USA). The cells were harvested and suspended in Assay Medium to a density of 312,500 cells/mL. Of the cell suspension, 32 µL per well was added to the Test Compound wells, the Unstimulated Control wells, and Stimulated Control wells and incubated per 16–24 h. […] Then, both the agonist and the antagonist plate were incubated in a humidified 37 °C/5% CO2 incubator for 5 h. After the incubation 8 µL of LiveBLAzer™-FRET B/G Substrate Mixture (CCF4-AM, Thermo Fisher Scientific corporation) was loaded cells in the absence of direct strong lighting, covered, and incubated at room temperature for 2 h.

histaminic H1R = molecular target: T5, histaminic H1R (Homo sapiens, UniProt P35367); assay: Off-target panel at Eurofins Cerep, H1; assay type: binding; settings: read-out: inhibition at histamine H1
T5 construct: Eurofins (Celle-Lévescault, France)
Description: as §3

T3 sequence (P34969 whole entry): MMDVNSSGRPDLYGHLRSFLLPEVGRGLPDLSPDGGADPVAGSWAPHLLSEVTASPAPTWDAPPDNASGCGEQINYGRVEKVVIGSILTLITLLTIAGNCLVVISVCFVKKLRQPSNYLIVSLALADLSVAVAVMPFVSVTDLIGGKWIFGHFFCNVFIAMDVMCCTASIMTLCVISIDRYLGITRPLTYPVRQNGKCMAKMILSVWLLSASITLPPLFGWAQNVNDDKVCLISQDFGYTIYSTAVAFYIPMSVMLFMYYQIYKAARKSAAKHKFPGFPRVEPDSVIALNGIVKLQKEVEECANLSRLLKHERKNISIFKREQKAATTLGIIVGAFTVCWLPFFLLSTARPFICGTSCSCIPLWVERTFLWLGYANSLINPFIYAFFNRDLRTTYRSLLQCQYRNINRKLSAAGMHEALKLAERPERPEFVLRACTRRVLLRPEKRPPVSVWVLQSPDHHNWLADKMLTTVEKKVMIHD
T5 sequence (P35367 whole entry): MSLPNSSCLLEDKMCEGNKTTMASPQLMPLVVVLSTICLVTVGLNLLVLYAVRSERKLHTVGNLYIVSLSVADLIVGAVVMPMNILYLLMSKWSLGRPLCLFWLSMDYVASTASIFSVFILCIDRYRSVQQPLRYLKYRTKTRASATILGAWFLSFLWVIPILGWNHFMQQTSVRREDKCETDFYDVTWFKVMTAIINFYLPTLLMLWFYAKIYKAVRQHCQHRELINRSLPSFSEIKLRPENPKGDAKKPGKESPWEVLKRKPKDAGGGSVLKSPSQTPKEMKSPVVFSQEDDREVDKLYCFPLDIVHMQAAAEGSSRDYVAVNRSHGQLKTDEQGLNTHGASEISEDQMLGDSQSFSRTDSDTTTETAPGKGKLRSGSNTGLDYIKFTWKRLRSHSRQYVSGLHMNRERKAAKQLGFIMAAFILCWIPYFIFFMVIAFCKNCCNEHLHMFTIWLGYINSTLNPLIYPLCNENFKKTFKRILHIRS
T2 sequence (Q12809 whole entry): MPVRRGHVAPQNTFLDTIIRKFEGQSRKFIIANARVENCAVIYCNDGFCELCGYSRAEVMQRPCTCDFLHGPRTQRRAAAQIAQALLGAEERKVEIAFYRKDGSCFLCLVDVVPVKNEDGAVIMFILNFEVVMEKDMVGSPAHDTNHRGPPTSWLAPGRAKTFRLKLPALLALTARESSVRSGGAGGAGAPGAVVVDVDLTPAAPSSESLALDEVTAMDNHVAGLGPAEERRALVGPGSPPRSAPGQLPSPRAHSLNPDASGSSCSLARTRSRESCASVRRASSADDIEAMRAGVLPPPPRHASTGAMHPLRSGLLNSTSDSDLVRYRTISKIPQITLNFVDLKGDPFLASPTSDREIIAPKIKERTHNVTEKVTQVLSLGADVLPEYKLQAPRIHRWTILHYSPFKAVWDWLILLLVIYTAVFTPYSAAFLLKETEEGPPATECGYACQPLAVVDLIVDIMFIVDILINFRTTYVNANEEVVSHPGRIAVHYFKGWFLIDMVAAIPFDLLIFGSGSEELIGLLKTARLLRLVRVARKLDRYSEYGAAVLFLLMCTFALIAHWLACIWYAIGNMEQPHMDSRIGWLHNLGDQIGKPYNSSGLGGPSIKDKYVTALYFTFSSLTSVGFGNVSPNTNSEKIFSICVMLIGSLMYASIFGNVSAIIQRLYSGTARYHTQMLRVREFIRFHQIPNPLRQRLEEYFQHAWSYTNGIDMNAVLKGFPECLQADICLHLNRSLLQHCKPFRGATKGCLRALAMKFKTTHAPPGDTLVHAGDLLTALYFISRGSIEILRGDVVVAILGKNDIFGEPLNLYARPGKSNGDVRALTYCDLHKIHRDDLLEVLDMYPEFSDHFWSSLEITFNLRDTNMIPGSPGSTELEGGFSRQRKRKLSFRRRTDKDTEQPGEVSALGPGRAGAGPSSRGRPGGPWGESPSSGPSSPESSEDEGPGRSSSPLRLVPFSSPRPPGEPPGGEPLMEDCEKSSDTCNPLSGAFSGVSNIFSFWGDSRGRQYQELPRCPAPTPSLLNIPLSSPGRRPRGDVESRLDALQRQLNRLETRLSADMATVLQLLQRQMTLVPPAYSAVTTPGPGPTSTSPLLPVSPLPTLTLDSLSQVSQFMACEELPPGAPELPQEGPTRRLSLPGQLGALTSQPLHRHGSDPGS

| Compound | Ki (human 5-HT1A) | inhibition at 1 µM (hERG potassium channel) | Major Metabolic Pathway [1] | microsomal CLint at 10 μM [1] | half-life at 10 μM [1] | inhibition at 1 µM (human 5-HT7Rs) | inhibition at 0.1 µM (human 5-HT7Rs) | IC50 (α1A-ARs) | EC50 (α1A-ARs; antagonist, in abstract) | α1A Profile (α1A-ARs) | functional preference over the α1B subtype (α1A-ARs; α1B vs α1A functional potency) | inhibition at 1 µM (histaminic H1R) |
| --- | --- | --- | --- | --- | --- | --- | --- | --- | --- | --- | --- | --- |
| O=S(=O)(NCC1CCN(CCOc2ccccc2OCC(F)(F)F)CC1)c1cccc(Cl)c1F [Compound 9, 3-Chloro-2-fluoro-N-[(1-{2-[(2,2,2-trifluoroethoxy)phenoxy]ethyl}piperidin-4-yl)methyl]benzenesulfonamide] | 70 ± 3.5 nM | < 50% | N-dealkylation | 67 µL/min/mg | 51.5 min | 93% | 57% | 0.8 nM | 0.8 nM | ANT | 5 fold | < 50% |
| CCOc1ccccc1OCCN[C@H](C)Cc1ccc(OC)c(S(N)(=O)=O)c1 [tamsulosin, reference compound] |  |  | N-dealkylation | 41 µL/min/mg | 83 min |  |  |  |  | ANT |  |  |
| O=S(=O)(NCC1CCN(CCOc2ccccc2OCC(F)(F)F)CC1)c1cc(Cl)ccc1F [Compound 10, 5-Chloro-2-fluoro-N-[(1-{2-[(2,2,2-trifluoroethoxy)phenoxy]ethyl}piperidin-4-yl)methyl]benzenesulfonamide] | 46 ± 0.6 nM | < 50% | N-dealkylation | 91.7 µL/min/mg | 37.8 min | 94% | 61% | 2.1 nM |  | ANT |  | < 50% |
